{"source": "patent US6821516B1", "about": "“Macrophages, process for preparing the same and their use as active substances of pharmaceutical compositions” (I.D.M. Immuno-Designed Molecules, priority 1993, dated 2004)", "system": "U937 tumor cells", "experiment": "In vitro antitumoral assay: inhibition of 3H-thymidine incorporation by U937 tumor cells, macrophage/U937 ratio 1/1", "type": "cell-based, human", "details": "mean and standard error of 8 preparations", "experimental": "The “cytotoxic activity” corresponds to the one measured as the percentage of inhibition of 3-H thymidine incorporation by target tumoral cells, particularly U937 cells, and a test for this measure is hereafter given:\nDifferentiated macrophages were seeded into 96-well flat microtiter plates at 10^4 macrophages/well in 0.2 ml. After 2 h incubation at 37° C. in 5% CO2 humidified atmosphere, the medium was removed and replaced by IMDM+5% hu AB serum containing or not 250 U/ml of rhu IFNγ; plates were further incubated overnight. After washing, 10^4 U937 tumor cells in 0.2 ml fresh medium (IMDM+10% FCS) were added to each well. After 24 h contact, 0.1 μCi of tritiated thymidine was added to each well for a further 24 h incubation.\nThe cells were collected and the determination of incorporated radioactivity on the fiber glass filters was carried out by β counting. The percentage inhibition of thymidine incorporation by tumor cells could be calculated according to the formula: [formula]\nThe cytotoxic activity is determined with U937 cells, the ratio between macrophages and U937 being of 1/1. […]\nThe cells were collected and the determination of incorporated radioactivity on the fiber glass filters was carried out by β counting. The % inhibition of thymidine incorporation by tumor cells was calculated according the formula: [formula]", "data": [{"substance": "+GM-CSF", "values": [{"measurement": "cytotoxic activity +IFN-γ: % inhibition of 3H-thymidine incorporation by U937 cells", "setting": "after activation with 250 U/ml IFN-γ", "value": "76 +/− 5%"}, {"measurement": "cytotoxic activity −IFN-γ: % inhibition of 3H-thymidine incorporation by U937 cells", "setting": "without IFN-γ activation (spontaneous)", "value": "44 +/− 5%"}]}]}
